Tested on: 633275-114-R-J1-PDC complex spheroids, viability
Experiment: Anticancer human tumor 633275-114-R-J1-PDC patient-derived endometrial adenocarcinoma cell line growth inhibition [GQUAD]
Details: for IC50: curve of first compound; for viability, T/C: stronger effect = lower value
Description: DNA G-quadruplex Stabilizer Agents in Combinations in Complex Spheroids
A high-throughput screen of multi-cell type tumor spheroids was designed to identify active combinations of DNA G-quadruplex stabilizer agents and targeted small molecules. Complex spheroids include a stromal component modeled by human endothelial cells (HUVEC) and fibroblasts modeled by human mesenchymal stem cells (MSCs). The concentration ranges selected for each drug and investigational agent were based upon clinically achievable concentrations if the clinical Cmax of the agent was known.
Compounds. The drugs and investigational agents: pidnarulex (CX-5461; NSC782164), APTO-253 (NSC789042), BRACO-19 (NSC847499), peposertib (NSC802822), ceralasertib (NSC780249), elimusertib (NSC800525), camonsertib (NSC841442), AZD-1390 (NSC803789), olaparib (NSC753686), talazoparib (NSC767125), ART-558 (NSC835418), sotorasib (NSC818433), MRTX-1133 (NSC836407), SN-38 (NSC673596), topotecan (NSC609699), etoposide (NSC141540), doxorubicin (NSC123127), gemcitabine (NSC613327), 5-fluorouracil (NSC19893), paclitaxel (NSC125973), vemurafenib (NSC761431), panobinostat (NSC761190), R-306465 (JNJ-16241199; NSC773264), adavosertib (NSC754352), TP-3654 (NSC805149), carboplatin (NSC241240), KSQ-4279 (NSC840948), and staurosporine (NSC755774) were obtained from the National Cancer Institute (NCI) Developmental Therapeutics Program Chemical Repository (34). The FDA-approved anticancer drug set is available from the NCI Developmental Therapeutics Program. […] The stock solutions were prepared in dimethyl sulfoxide (DMSO, Sigma-Aldrich, St. Louis, MO, cat. D2650) at 800-fold the tested concentration and stored at -70 degrees C prior to their use. All drugs and investigational agents were tested over a range starting from a high concentration at or near the clinical Cmax and decreasing in half-log increments. If the clinical Cmax for an agent had not been determined, the highest concentration tested was 10 microM.
2.3 Cell Culture. All cells were maintained in an incubator at 37 degrees C and 5% CO2 with 95% humidity. The PDC lines were cultured according to standard operating procedures established by the NCI PDMR. All PDCs were thawed and cultured in Matrigel-coated flasks prepared with a working solution of 1X Ham's F-12 nutrient mix, without supplementation (Invitrogen, cat. 11765054), 100 U/mL penicillin-streptomycin (Invitrogen, cat. 15140122), and 2.5% Matrigel (Corning Inc., cat. 354248) for the first three passages. The 857933-349-R-J2-PDC line was cultured in 6C/Colon 1B media, which includes advanced DMEM/F-12 (Thermo Fisher Scientific, cat. 12634028), 10 mM HEPES (Thermo Fisher Scientific, cat. 15630080), 1X GlutaMAX supplement (Thermo Fisher Scientific, cat. 35050061), 0.1 mg/mL primocin (InvivoGen, cat. ant-pm-2), 10% defined fetal bovine serum, heat inactivated (HyClone Laboratories Inc., cat. SH30070.03HI), 50% L-WRN conditioned media (ATCC, cat. CRL-3276), 1.25 mM N-Acetyl-L-cysteine (Sigma-Aldrich, cat. A9165), 10 mM nicotinamide (Sigma-Aldrich, cat. N0636), 1X B-27 supplement (Thermo Fisher Scientific, cat. 17504044), 1X N-2 supplement (Thermo Fisher Scientific, cat. 17502048), 10 microM Y-27632 dihydrochloride (Tocris Bioscience, cat. 1254), and 50 ng/mL human EGF recombinant protein (Thermo Fisher Scientific, cat. PHG0311). The 485176-168-R4-J1-PDC line was cultured in Panc media, which includes all 6C/Colon 1B media components plus 100 ng/mL human FGF-10 (Thermo Fisher Scientific, cat. 100-26), 500 nM SB-431542 (Selleckchem, cat. S1067), and gastrin (Tocris, cat. 3006).
[…]

[1] = second compound 0.0316 µM, first compound 0.0316 µM
[2] = second compound 0.0316 µM, first compound 0.1 µM
[3] = second compound 0.0316 µM, first compound 0.316 µM
[4] = second compound 0.0316 µM, first compound 1 µM
[5] = second compound 0.0316 µM, first compound 3.16 µM
[6] = second compound 0.0316 µM, first compound 10 µM
[7] = second compound 0.1 µM, first compound 0.0316 µM
[8] = second compound 0.1 µM, first compound 0.1 µM
[9] = second compound 0.1 µM, first compound 0.316 µM
[10] = second compound 0.1 µM, first compound 1 µM
[11] = second compound 0.1 µM, first compound 3.16 µM
[12] = second compound 0.1 µM, first compound 10 µM
[13] = second compound 0.316 µM, first compound 0.0316 µM
[14] = second compound 0.316 µM, first compound 0.1 µM
[15] = second compound 0.316 µM, first compound 0.316 µM
[16] = second compound 0.316 µM, first compound 1 µM
[17] = second compound 0.316 µM, first compound 3.16 µM
[18] = second compound 0.316 µM, first compound 10 µM
[19] = second compound 1 µM, first compound 0.0316 µM
[20] = second compound 1 µM, first compound 0.1 µM
[21] = second compound 1 µM, first compound 0.316 µM
[22] = second compound 1 µM, first compound 1 µM
[23] = second compound 1 µM, first compound 3.16 µM
[24] = second compound 1 µM, first compound 10 µM
[25] = second compound 3.16 µM, first compound 0.0316 µM
[26] = second compound 3.16 µM, first compound 0.1 µM
[27] = second compound 3.16 µM, first compound 0.316 µM
[28] = second compound 3.16 µM, first compound 1 µM
[29] = second compound 3.16 µM, first compound 3.16 µM
[30] = second compound 3.16 µM, first compound 10 µM
[31] = second compound 10 µM, first compound 0.0316 µM
[32] = second compound 10 µM, first compound 0.1 µM
[33] = second compound 10 µM, first compound 0.316 µM
[34] = second compound 10 µM, first compound 1 µM
[35] = second compound 10 µM, first compound 3.16 µM
[36] = second compound 10 µM, first compound 10 µM
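Further: spheroids exposed to the agents for seven days.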
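Wherever viability, T/C is given: percent of DMSO vehicle control viability which is 100%.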

CCCS(=O)(=O)Nc1ccc(F)c(C(=O)c2c[nH]c3ncc(-c4ccc(Cl)cc4)cc23)c1F + Cc1cnc(CNC(=O)c2c(=O)c3ccc(N4CCCN(C)CC4)nc3n3c2sc2ccccc23)cn1
IC50 (second compound 0.0316 µM): 5.34 µM | IC50 (second compound 0.1 µM): 3.83 µM | IC50 (second compound 0.316 µM): 1.46 µM | IC50 (second compound 1 µM): < 0.0316 µM | IC50 (second compound 3.16 µM): < 0.0316 µM | IC50 (second compound 10 µM): < 0.0316 µM | viability, T/C [1]: 68.7% | viability, T/C [2]: 67.6% | viability, T/C [3]: 72.9% | viability, T/C [4]: 77% | viability, T/C [5]: 69.4% | viability, T/C [6]: 26.3% | viability, T/C [7]: 55.9% | viability, T/C [8]: 53.1% | viability, T/C [9]: 56.1% | viability, T/C [10]: 58.1% | viability, T/C [11]: 56.4% | viability, T/C [12]: 20.7% | viability, T/C [13]: 49% | viability, T/C [14]: 53.3% | viability, T/C [15]: 50.8% | viability, T/C [16]: 54% | viability, T/C [17]: 46.8% | viability, T/C [18]: 19.3% | viability, T/C [19]: 40.7% | viability, T/C [20]: 43.6% | viability, T/C [21]: 47.7% | viability, T/C [22]: 47.3% | viability, T/C [23]: 43.3% | viability, T/C [24]: 13.6% | viability, T/C [25]: 37.2% | viability, T/C [26]: 37.1% | viability, T/C [27]: 36.7% | viability, T/C [28]: 40.3% | viability, T/C [29]: 40.6% | viability, T/C [30]: 7.26% | viability, T/C [31]: 30.6% | viability, T/C [32]: 33.1% | viability, T/C [33]: 34% | viability, T/C [34]: 35.9% | viability, T/C [35]: 27.8% | viability, T/C [36]: 0.18%

CC[C@@]1(O)C(=O)OCc2c1cc1n(c2=O)Cc2cc3c(CN(C)C)c(O)ccc3nc2-1 + Cc1cnc(CNC(=O)c2c(=O)c3ccc(N4CCCN(C)CC4)nc3n3c2sc2ccccc23)cn1
IC50 (second compound 0.0316 µM): 0.0328 µM | IC50 (second compound 0.1 µM): 0.00127 µM | IC50 (second compound 0.316 µM): 0.00165 µM | IC50 (second compound 1 µM): < 0.000999 µM | IC50 (second compound 3.16 µM): < 0.000999 µM | IC50 (second compound 10 µM): < 0.000999 µM | viability, T/C (second compound 0.0316 µM, first compound 0.000999 µM): 63.9% | viability, T/C (second compound 0.0316 µM, first compound 0.00316 µM): 62.7% | viability, T/C (second compound 0.0316 µM, first compound 0.00999 µM): 53.8% | viability, T/C [1]: 54.5% | viability, T/C (second compound 0.0316 µM, first compound 0.0999 µM): 38.4% | viability, T/C [3]: 32.8% | viability, T/C (second compound 0.1 µM, first compound 0.000999 µM): 50.7% | viability, T/C (second compound 0.1 µM, first compound 0.00316 µM): 47.6% | viability, T/C (second compound 0.1 µM, first compound 0.00999 µM): 47.5% | viability, T/C [7]: 42.6% | viability, T/C (second compound 0.1 µM, first compound 0.0999 µM): 41% | viability, T/C [9]: 36.5% | viability, T/C (second compound 0.316 µM, first compound 0.000999 µM): 49.7% | viability, T/C (second compound 0.316 µM, first compound 0.00316 µM): 49.1% | viability, T/C (second compound 0.316 µM, first compound 0.00999 µM): 48.5% | viability, T/C [13]: 40.1% | viability, T/C (second compound 0.316 µM, first compound 0.0999 µM): 34.7% | viability, T/C [15]: 33.4% | viability, T/C (second compound 1 µM, first compound 0.000999 µM): 40% | viability, T/C (second compound 1 µM, first compound 0.00316 µM): 40.6% | viability, T/C (second compound 1 µM, first compound 0.00999 µM): 39.1% | viability, T/C [19]: 40.5% | viability, T/C (second compound 1 µM, first compound 0.0999 µM): 39.9% | viability, T/C [21]: 35.2% | viability, T/C (second compound 3.16 µM, first compound 0.000999 µM): 38.4% | viability, T/C (second compound 3.16 µM, first compound 0.00316 µM): 37.9% | viability, T/C (second compound 3.16 µM, first compound 0.00999 µM): 37.7% | viability, T/C [25]: 33.1% | viability, T/C (second compound 3.16 µM, first compound 0.0999 µM): 35.9% | viability, T/C [27]: 29.9% | viability, T/C (second compound 10 µM, first compound 0.000999 µM): 31.7% | viability, T/C (second compound 10 µM, first compound 0.00316 µM): 35.8% | viability, T/C (second compound 10 µM, first compound 0.00999 µM): 29.8% | viability, T/C [31]: 31.9% | viability, T/C (second compound 10 µM, first compound 0.0999 µM): 32.7% | viability, T/C [33]: 28.4%

COc1ncnc(C2CC2)c1-c1ncc2cnn(Cc3ccc(-c4nc(C(F)(F)F)cn4C(C)C)cc3)c2n1 + Cc1cnc(CNC(=O)c2c(=O)c3ccc(N4CCCN(C)CC4)nc3n3c2sc2ccccc23)cn1
IC50 (second compound 0.0316 µM): > 10 µM | IC50 (second compound 0.1 µM): < 0.0316 µM | IC50 (second compound 0.316 µM): < 0.0316 µM | IC50 (second compound 1 µM): < 0.0316 µM | IC50 (second compound 3.16 µM): < 0.0316 µM | IC50 (second compound 10 µM): < 0.0316 µM | viability, T/C [1]: 53.1% | viability, T/C [2]: 54.6% | viability, T/C [3]: 59.3% | viability, T/C [4]: 56% | viability, T/C [5]: 56.5% | viability, T/C [6]: 58.2% | viability, T/C [7]: 45.3% | viability, T/C [8]: 45.5% | viability, T/C [9]: 45.9% | viability, T/C [10]: 48.5% | viability, T/C [11]: 49% | viability, T/C [12]: 50% | viability, T/C [13]: 42.7% | viability, T/C [14]: 43.9% | viability, T/C [15]: 42.1% | viability, T/C [16]: 38.8% | viability, T/C [17]: 48.7% | viability, T/C [18]: 42.5% | viability, T/C [19]: 39.9% | viability, T/C [20]: 39.7% | viability, T/C [21]: 37.1% | viability, T/C [22]: 36.9% | viability, T/C [23]: 40.5% | viability, T/C [24]: 38.7% | viability, T/C [25]: 32% | viability, T/C [26]: 32.1% | viability, T/C [27]: 35.5% | viability, T/C [28]: 33.4% | viability, T/C [29]: 36.6% | viability, T/C [30]: 34.1% | viability, T/C [31]: 29.2% | viability, T/C [32]: 28.8% | viability, T/C [33]: 30.5% | viability, T/C [34]: 27.5% | viability, T/C [35]: 31.9% | viability, T/C [36]: 29.3%

— PubChem BioAssay AID2060505 (Molecular Pharmacology Branch, DTP, NCI, 2025)
